The source of these data is patent US20250270159A1, “1-(CYCLOBUTANEMETHYLIDENE)-2, 4, 5-TRIMETHOXYBENZENE COMPOUND AND PREPARATION METHOD AND USE THEREOF” (CHENGDU XINRUI TAIKANG TECHNOLOGY CO., LTD., priority 2023, published 2025).

Experiment [1] relates to mouse model of pentylenetetrazole-induced epilepsy. Briefly: Mouse model of pentylenetetrazole-induced epilepsy (Racine score, seizure rate, latency). It is filed as in vivo, Kunming (KM) mice. As to conditions: for Incubation period (s), Clonic seizure / Incubation period (s), Tonic seizure: no seizure within 30 min recorded as 1800 s; for Seizure grade: pentylenetetrazole 75 mg/kg ip, Racine score within 30 min; for seizure rate, Clonic seizure / seizure rate, Tonic seizure: within 30 min. The procedure: Validation of the protective effect of CTMB in a mouse model of pentylenetetrazole-induced epilepsy. • (1) Experimental animals: specific pathogen free (SPF) adult male Kunming (KM) mice with a weight of 30-35 g. • (2) Animal grouping: the test mice were randomly divided into […], namely, saline group, low-dose CTMB group (a dose of 50 mg/kg, CTMB-L), middle-dose CTMB group (a dose of 75 mg/kg, CTMB-M), high-dose CTMB group (a dose of 100 mg/kg, CTMB-H), 10 mice in each group, and each group was administered by intraperitoneal injection. • (3) Evaluation methods and results:
After a period of drug administration, mice in each group were injected intraperitoneally with pentylenetetrazole of the epilepsy modeling drug with a dose of 75 mg/kg, and clonic seizures and tonic seizures were used as evaluation indexes. Racine scores as well as the seizure rate and latency period of clonic seizures (Racine scores of 1-3) and tonic seizures (Racine scores of 4-5) were observed and recorded for each group of mice within 30 min. Grading scale of Racine scores are as follows. Grade 0 represents normal nonepileptic activity; grade 1 represents wet-dog-like shaking or scratching; grade 2 represents head nodding or tail wagging; grade 3 represents stretching of one forelimb or clonus of one limb; grade 4 represents multiple limb clonus or tonicity; grade 5 represents falls and generalized tonic clonic seizures. If no seizure occurs in the mouse within 30 min, the latency period was recorded as 1800 s.

The next experiment relates to Malondialdehyde (MDA). The experiment is described as follows: MDA content in striatum of PD mice. It is filed as in vivo, C57 mice. As to conditions: Group D, CTMB 20 mg/kg ip, after 4 weeks, injured side. Here is the method: The mice were randomly divided into a sham operation group (group S, given a blank emulsion with a volume equal to that of the administered group), a model group (group M, given a blank emulsion with a volume equal to that of the administered group), a CTMB group (20 mg/kg, group D), and a levodopa group (levodopa: benserazide hydrochloride=4:1, 12 mg/kg, group L), each group included 10-12 mice, and all of them were administered intraperitoneally.
Malondialdehyde (MDA) is a commonly used indicator of membrane lipid peroxidation, reduced glutathione (GSH) is one of the most commonly used non-enzymatic indicators of antioxidant substances, and superoxide dismutase (SOD) is a common indicator of antioxidant enzymes. After completing the evaluation of motor function after 4 weeks of drug administration, the mice were deeply anesthetized and perfused with 20 mL of saline via the heart. The brain was rapidly severed to isolate the striatal region on the injured side (right side), weighed, and placed into a 1.5 mL EP tube, and homogenized at low temperature by adding phosphate-buffered saline (PBS) at the ratio of a weight of animal tissues (g) to a volume of homogenization medium (mL) of 1:9. […]

The next experiment deals with IL-1. Briefly: IL-1 in cerebral cortex of TBI rats. It is filed as in vivo, SD rats. As to conditions: 30 mg/kg ip 2 h after TBI; 24 h after administration; FIG. 3. Here is the method: (§1) The experimental grouping and drug administration plan were as follows. • Sham operation group (Group P): saline was given with the same volume as in the CTMB group; • Model group (T group): a blank emulsion was given with the same volume as in the CTMB group; • Medium dose group (Group M): a dose of 30 mg/kg of CTMB emulsion injection was given.
The experimental grouping and drug administration plan were the same as the test 3. After 2 h of the TBI modeling, different groups of rats were administered intraperitoneally. After 24 h of the administration, the rats were deeply anesthetized, the head was severed and the brain was removed, about 60-120 mg of hemisphere cortex was taken out from the hemisphere on the blood side, 10 times the volume of ice-cold centrifugal buffer used for biochemical assays was added, homogenization was carried out in an ice bath for 10 min, and centrifugation was carried out at 4° C. and 14000 rpm/min for 30 min. The supernatant was extracted, and inflammatory factors IL-1, IL-6, and TNF-α were tested according to the instructions of IL-1, IL-6, and TNF-α assay kits, respectively.

The next experiment concerns GABA. Briefly: GABA content in brain of TBI rats. It is filed as in vivo, SD rats. Particulars: 30 mg/kg ip, 7 d continuous administration, FIG. 4. The procedure: as §1
The experimental grouping and drug administration plan were the same as the test 3. After 7 d of continuous administration to each group, the rats were deeply anesthetized, the heads were severed and the brains were removed, about 60-120 mg of hemispheric cortex on the blood side was taken out, 10 times volume of ice-cold centrifugation buffer used for biochemical assay was added, homogenized for 10 min under an ice bath, and then centrifuged for 30 min at 4° C. and 14000 rpm/min. The supernatants were taken to test the GLT-1 and GABA content according to the instructions of GLT-1 and GABA content assay kit, respectively. Glutamate transporter 1 (GLT-1) is an important glutamate transporter in the brain that transports extracellular glutamate to the intracellular compartment. γ-aminobutyric acid (GABA) is an important inhibitory neurotransmitter, and a dramatic increase in the concentration of extracellular glutamate in pathological conditions leads to neuronal hyperexcitability toxicity.

Marks after values point to notes of the source that are not given here.

On to `COc1cc(OC)c(OC)cc1C=C1CCC1` [CTMB, 1-(cyclobutylidenemethyl)-2,4,5-trimethoxybenzene], for which, in experiment [1] (CTMB-H 100 mg/kg ip), the “Incubation period (s), Clonic seizure” value is listed as 1549.9 ± 537.1 s; the “Incubation period (s), Tonic seizure” value amounted to 1800.0 ± 0.0 s; the Seizure grade is recorded as 0.2 ± 0.4; the “seizure rate, Clonic seizure” value turned out to be 20%***. Besides, the “seizure rate, Tonic seizure” value in experiment [1] (CTMB-H 100 mg/kg ip) was determined as 0%***. In experiment [1] (CTMB-L 50 mg/kg ip), the “Incubation period (s), Clonic seizure” value was determined as 588.9 ± 657.6 s; the “Incubation period (s), Tonic seizure” value worked out at 1000.8 ± 700.7 s; the Seizure grade is reported as 4.1 ± 1.5; the “seizure rate, Clonic seizure” value stood at 90%. Also, in experiment [1] (CTMB-L 50 mg/kg ip), the “seizure rate, Tonic seizure” value was found to be 70%. Also, in experiment [1] (CTMB-M 75 mg/kg ip), the “Incubation period (s), Tonic seizure” value amounted to 1553.5 ± 400.4 s; the Seizure grade is 1.8 ± 1.3; the “seizure rate, Clonic seizure” value is on record as 50%*; the “seizure rate, Tonic seizure” value is 30%**. Further, the MDA with Malondialdehyde (MDA) is listed as 2.04 ± 0.57 μmol/g protein. Further, in the experiment on IL-1, the “content of IL-1 in cerebral cortex tissue” value was “significantly reduced”. The “GABA content in brain” value in the experiment with GABA was “increases the content of GABA”.
